# Results as given in paper PMC5799297, “Metabolic Hydrolysis of Aromatic Amides in Selected Rat, Minipig, and Human In Vitro Systems” (Scientific Reports, 2018).
# Read-outs that look alike come from different tables or passages of the source.
# Legend:
# [1] = Text: (§1) Pooled subcellular fractions of male Sprague-Dawley rat liver S9 fractions (10 donors), male Sprague-Dawley Aroclor 1254 induced rat liver S9 fractions (20 donors), human liver S9 fractions (mixed gender 10 donors), male Gottingen minipig liver microsomes (3 donors) and male Gottingen minipig liver S9 fractions (3 donors) were purchased from BioreclamationIVT (West Sussex, UK). Cryopreserved primary human hepatocytes (mixed gender 10 donors) were also purchased from BioreclamationIVT. Human CES1b, CES1c and CES2 Supersomes and human liver microsomes (mixed gender 150 donors) were purchased from Corning (Flintshire, UK). […]
# (§2) LC-MS/MS analysis was performed using a Waters UPLC instrument with an Acquity^TM binary solvent manager, Acquity^TM 4-position heated column manager and 2777 Ultra High Pressure Autosampler coupled to a Xevo-TQ MS triple quadrupole mass spectrometer (Waters Ltd, Herts, UK) with an electrospray ionisation (ESI) source. […] Incubations where the total parent amide decreased below 80% of the t0 baseline sample or the amine metabolite was detected were determined to be hydrolysed.
# [2] = human, in vivo; cited from earlier work
# [3] = cited from earlier work
# AADAC = conditions: cited from earlier work
# [4] = Amide hydrolysis by minipig liver microsomes; conditions: 1 mg/ml protein, 0.5 µM amide, pH 7.4, up to 120 min, no NADPH
# Text: as §1, §2
structure (smiles),measurement,setting,value
O=C(CCl)Nc1ccccc1 [2-chloro-N-phenylacetamide],change in rate of hydrolysis as a result of Aroclor 1254 induction,[1],enhanced rate of hydrolysis
Nc1ccc([N+](=O)[O-])c(C(F)(F)F)c1 [3-trifluoromethyl-4-nitroaniline],hepatotoxicity,[2],associated with hepatotoxicity
"CC(=O)Nc1ccccc1 [acetanilide, Acetanilide]",amide hydrolysis in humans in vivo,[3],has been observed
same,dose hydrolysed in humans in vivo,[3],approximately 10%
"CC(O)(CS(=O)(=O)c1ccc(F)cc1)C(=O)Nc1ccc(C#N)c(C(F)(F)F)c1 (stereo not shown) [bicalutamide, Bicalutamide]",hepatotoxicity,[2],few cases of hepatotoxicity
"CC(C)C(=O)Nc1ccc([N+](=O)[O-])c(C(F)(F)F)c1 [flutamide, Flutamide]",enzyme mainly responsible for hydrolysis,AADAC,AADAC
"CC(=O)Nc1ccc(O)cc1 [paracetamol, Paracetamol]",dose hydrolysed in humans in vivo,[3],1–2%
"CCCNC(C)C(=O)Nc1ccccc1C (stereo not shown) [prilocaine, Prilocaine]",amide hydrolysis in humans in vivo,[3],undergo hydrolysis
"CCC(=O)Nc1ccc(Cl)c(Cl)c1 [propanil, Propanil]",amide hydrolysis,[4],successful hydrolysis
same,amide hydrolysis in humans in vivo,[3]; human,undergo hydrolysis
